Experimental data published in patent US20110263699A1 (priority 2002, published 2011).
Where a name gives a salt, the structure may show the parent alone.

Tests used:
μ-Opioid receptor [1] = molecular target: μ-Opioid receptor (Rattus norvegicus, UniProt P33535); experiment: μ-Opioid receptor binding (rat)
NA uptake = NA uptake (Homo sapiens, UniProt P23975); experiment: biochemical; settings: read-out: NA uptake inhibition Ki values
5HT uptake = 5HT uptake (Homo sapiens, UniProt P31645); experiment: biochemical; settings: read-out: 5HT uptake inhibition Ki values
Chain of 5HT uptake (P31645 whole entry): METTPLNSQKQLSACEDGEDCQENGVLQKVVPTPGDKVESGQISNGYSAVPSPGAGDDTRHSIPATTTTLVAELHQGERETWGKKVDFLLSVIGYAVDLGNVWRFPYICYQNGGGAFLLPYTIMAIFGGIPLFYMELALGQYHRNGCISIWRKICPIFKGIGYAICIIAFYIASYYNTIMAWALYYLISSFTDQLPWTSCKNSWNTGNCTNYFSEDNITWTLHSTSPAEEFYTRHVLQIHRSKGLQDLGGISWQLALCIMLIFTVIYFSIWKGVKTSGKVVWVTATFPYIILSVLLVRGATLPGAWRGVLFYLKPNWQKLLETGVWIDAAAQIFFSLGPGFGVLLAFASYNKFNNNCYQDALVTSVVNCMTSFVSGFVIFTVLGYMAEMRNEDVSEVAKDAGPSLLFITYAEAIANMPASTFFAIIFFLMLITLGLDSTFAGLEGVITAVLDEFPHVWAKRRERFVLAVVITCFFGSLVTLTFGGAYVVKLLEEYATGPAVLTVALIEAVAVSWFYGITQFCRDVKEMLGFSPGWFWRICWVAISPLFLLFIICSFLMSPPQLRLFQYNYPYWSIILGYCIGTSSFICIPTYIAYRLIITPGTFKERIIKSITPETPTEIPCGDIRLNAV

duration of immobility = experiment: Tail suspension test on mice; assay type: in vivo
Excerpt: Rodents left hanging by the tail rapidly become immobile. Antidepressants reduce the duration of the immobility, while tranquilizers prolong the duration of the immobility. […] Several mice were investigated in parallel and the duration of immobility determined. […] 10-20 mice were investigated per group. […] In this behavioural model, antidepressants, as also in other behavioural models, lead to a shortening of the immobility phase, while opioids such as morphine prolong the immobility phase.

μ-Opioid receptor [2] = molecular target: T1, μ-Opioid receptor (Homo sapiens, UniProt P35372); experiment: μ-Opioid receptor binding (human)
Target sequence in this assay (P35372 whole entry): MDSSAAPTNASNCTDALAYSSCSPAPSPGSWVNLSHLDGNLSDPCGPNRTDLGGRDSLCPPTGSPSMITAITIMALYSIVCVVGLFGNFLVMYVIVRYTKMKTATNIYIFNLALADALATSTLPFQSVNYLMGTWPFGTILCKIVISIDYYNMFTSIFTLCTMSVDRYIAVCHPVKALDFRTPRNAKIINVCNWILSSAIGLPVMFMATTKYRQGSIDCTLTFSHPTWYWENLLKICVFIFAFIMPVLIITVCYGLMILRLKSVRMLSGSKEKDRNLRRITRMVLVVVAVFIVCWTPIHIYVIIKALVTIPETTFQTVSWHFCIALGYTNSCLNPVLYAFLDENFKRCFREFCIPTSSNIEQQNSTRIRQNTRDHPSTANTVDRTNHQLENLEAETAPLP

μ-Opioid receptor [3] = molecular target: T1, μ-Opioid receptor; experiment: μ-Opioid receptor binding (species not given)
Target sequence in this assay (P35372 whole entry, species assumed): as the sequence (P35372 whole entry) above

[4] = 4.64 mg/kg i.p., 30 minutes before the test

Chain of NA uptake (P23975 whole entry): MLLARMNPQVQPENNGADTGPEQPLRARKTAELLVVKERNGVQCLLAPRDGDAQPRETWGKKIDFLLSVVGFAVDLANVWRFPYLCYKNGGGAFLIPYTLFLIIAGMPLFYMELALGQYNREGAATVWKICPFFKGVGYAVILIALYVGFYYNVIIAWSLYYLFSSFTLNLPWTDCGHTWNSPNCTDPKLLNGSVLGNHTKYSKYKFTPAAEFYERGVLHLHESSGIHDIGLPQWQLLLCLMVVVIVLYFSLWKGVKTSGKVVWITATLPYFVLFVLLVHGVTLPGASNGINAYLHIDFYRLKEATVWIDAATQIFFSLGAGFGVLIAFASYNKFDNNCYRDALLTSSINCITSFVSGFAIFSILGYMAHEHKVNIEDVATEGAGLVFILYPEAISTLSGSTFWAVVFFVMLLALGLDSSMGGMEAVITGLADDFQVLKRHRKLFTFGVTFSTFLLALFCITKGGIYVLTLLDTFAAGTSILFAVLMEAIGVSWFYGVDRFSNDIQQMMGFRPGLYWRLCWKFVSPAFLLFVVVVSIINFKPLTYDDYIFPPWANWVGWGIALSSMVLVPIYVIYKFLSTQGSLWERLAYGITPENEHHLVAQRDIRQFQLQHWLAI
Chain of μ-Opioid receptor (Rattus norvegicus, UniProt P33535) (P33535 whole entry): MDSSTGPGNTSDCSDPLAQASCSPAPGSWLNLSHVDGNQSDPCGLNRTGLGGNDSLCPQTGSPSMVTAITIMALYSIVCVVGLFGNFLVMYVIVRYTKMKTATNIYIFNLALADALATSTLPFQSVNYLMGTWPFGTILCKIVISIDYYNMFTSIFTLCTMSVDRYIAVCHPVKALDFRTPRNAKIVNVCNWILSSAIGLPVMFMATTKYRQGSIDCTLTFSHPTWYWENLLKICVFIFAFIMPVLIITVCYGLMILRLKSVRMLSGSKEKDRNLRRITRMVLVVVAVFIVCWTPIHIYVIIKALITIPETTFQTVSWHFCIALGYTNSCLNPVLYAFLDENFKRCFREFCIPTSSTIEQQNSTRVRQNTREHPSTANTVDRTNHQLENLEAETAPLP

CN(C)C[C@@H]1CCCC[C@H]1c1cccc(O)c1.Cl [(1R,2R)-3-(2-dimethylaminomethyl-cyclohexyl)-phenol; hydrochloride]
Ki (μ-Opioid receptor [1]): 38 nM | Ki (NA uptake): 160 nM | Ki (5HT uptake): 50 nM | Duration of immobility % change compared with the solvent control (duration of immobility; [4]): +6% | Duration of immobility (in words) (duration of immobility; after pretreatment with naloxone): marked decrease in the duration of immobility | Duration of immobility compared with the solvent control (in words) (duration of immobility; without naloxone pretreatment): only a slight change in the duration of immobility

CNC[C@@H]1CCCC[C@H]1c1cccc(O)c1 [(1R,2R)-3-(2-methylaminomethyl-cyclohexyl)-phenol, hydrochloride]
Ki (μ-Opioid receptor [2]): 910 nM | Ki (NA uptake): 560 nM | Ki (5HT uptake): 9410 nM

CNCCCN1c2ccccc2CCc2ccccc21 [Desipramine, desipramine]
μ-Opioid receptor Ki values (μ-Opioid receptor [3]): inactive

CNCCC(Oc1ccc(C(F)(F)F)cc1)c1ccccc1 (stereo not shown) [Fluoxetine, fluoxetine]
μ-Opioid receptor Ki values (μ-Opioid receptor [3]): inactive

CN(C)CCCN1c2ccccc2CCc2ccccc21 [Imipramine, imipramine]
Duration of immobility % change compared with the solvent control (duration of immobility; 31.6 mg/kg i.p., 30 minutes before the test): −61%

CN1CC[C@]23c4c5ccc(O)c4O[C@H]2[C@@H](O)C=C[C@H]3[C@H]1C5 [Morphine, morphine]
Duration of immobility % change compared with the solvent control (duration of immobility; [4]): +90% | Duration of immobility % change compared with the solvent control (duration of immobility; 10.0 mg/kg i.p., 30 minutes before the test): +145% | Duration of immobility % change compared with the solvent control (duration of immobility; 21.5 mg/kg i.p., 30 minutes before the test): +169%

C=CCN1CC[C@]23c4c5ccc(O)c4O[C@H]2C(=O)CC[C@@]3(O)[C@H]1C5 [Naloxone, naloxone]
Duration of immobility % change compared with the solvent control (duration of immobility; 1.0 mg/kg i.v.): −15%
